From patent US20040009899A1, “Treating dominant disorders” (priority 2002, published 2004)

Legend:
human HD transgene = test: Western immunoblot of human HD transgene (htt) expression in PNA-treated R6/1 mice; type: in vivo, mouse
Procedure: Cannulation and microsurgery—method 1: B6CBA, R6/1, and R6/2 mice were obtained from The Jackson Laboratory (Bar Harbor, Me.). Mice were anesthetized via intraperitoneal (i.p.) injection with 100 mg/kg of a ketamine/xylazine solution containing 8 mg/mL ketamine and 1 mg/mL xylazine in 0.9% saline. Once anesthetized, each mouse was cannulated. Each anesthetized mouse was placed in a Stoelting Stereotaxic Frame with a mouse adapter (Stoelting Instruments, Wood Dale, Ill.). An incision was made using a scalpel, and the skin and tissue were pulled back with swabs to reveal the skull. The cannulation site was positioned for optimum access to the ventricle, at coordinates AP −0.2 mm, Horiz −1 mm from bregma. A cannula entry port and two bone screw ports were opened in the skull using a Dremel Flex Shaft Drill (Stoelting Instruments) with a 2.1 mm burr for the guide cannula port and a 0.7 mm burr for the bone screws (Fine Science Tools, Foster City, Calif.). Two 4.0 mm long bone screws (0.85 diameter) were placed far enough into the bone screw ports to fasten securely. After placing the bone screws, a cannula system (Plastics One, Roanoke, Va.) including a guide cannula (C315Gs-5/Spc), a dummy cannula (C313Dcs-5Spc), an injection cannula (C3151S-5.2/Spc), and a connector assembly (C313C) was placed in the guide cannula port. The guide cannula was positioned 1.5 mm into the brain using a stereotaxic needle and was secured to the bone screws and incision with dental cement. Once the dental cement hardened, the stereotaxic needle was removed and both the injection cannula and dummy cannula were placed within the guide cannula and secured to the connector assembly. Proper cannula placement was confirmed in several mice by injecting bromophenol blue dye into the ventricular space and noting that only the ventricle was stained. […]
Following the treatment period, mice were anesthetized with ether and sacrificed by cervical dislocation. […] Following centrifugation, the supernatants were removed and protein concentrations were quantified by Bradford assays using a BSA standard. […]

GAPDH = test: Western immunoblot of GAPDH (non-targeted gene) in PNA-treated R6/1 mice; type: in vivo, mouse; details: any animal tested
Procedure: Following the treatment period, mice were anesthetized with ether and sacrificed by cervical dislocation. Whole brains and livers were removed and placed in 0.9% saline. Striatum tissue was dissected from whole brains, and liver tissue was finely minced. The tissues were placed in separate 2 mL microfuge tubes on dry ice and then suspended in 20 volumes of RIPA buffer (50 mM Tris pH 8, 150 mM NaCl, 1 mM EDTA, 1 mM EGTA, 0.5% sodium deoxycholate, 0.1% SDS, 1% TritonX-100, 2 μg/mL leupeptin, 2 μg/mL aprotinin, 1 μg/mL pepstatin, 1 mM phenylmethylsulfonylfluoride) per gram of tissue. Suspended tissues were homogenized by sonication, and the homogenates were clarified by centrifugation at 12,000×g for 20 minutes at 4° C. Following centrifugation, the supernatants were removed and protein concentrations were quantified by Bradford assays using a BSA standard.
Immunoblotting: Supernatants from the tissue homogenates were mixed with 1/6 volume of 6×SDS sample buffer (350 mM Tris pH 6.8, 10% SDS, 30% glycerol, 15% 2-mercaptoethanol, 0.012% bromophenol blue). Equal amounts of protein were directly loaded onto 10% acrylamide/0.05% bisacrylamide gels without heat denaturation. […] Protein bands were detected on film by chemiluminescence. […]

Q: Which results are given for “HDs: sense PNA oligomer, 14 residues, 5′-GGACTGCCGTGCCG-3′ (SEQ ID NO:3), specific for the expanded human HD allele (all peptide nucleic acid (PNA))”?
A: effectiveness at inhibiting transgene expression relative to random, scrambled PNA (human HD transgene; 25 μg into the ventricle every other day for 4 or 6 days): significantly more effective; effect on expression of the human transgene in the liver (human HD transgene; liver, direct injection into the brain, 4 or 6 days): little effect; inhibition of human HD transgene expression (human HD transgene; striatum, 1 μL of 25 μg/μL into the ventricle every other day for 4 or 6 days, compared to untreated R6/1 controls): dramatic inhibition; inhibition of non-targeted genes such as GAPDH (GAPDH): No measurable inhibition
